In ChEMBL document CHEMBL4507275, “Data for DCP probe BI-2545” (2021):

Experiments:
[1] = molecular target: Mitogen-activated protein kinase kinase kinase 19 (Homo sapiens) (UniProt Q56UN5); conditions: Compound concentration 1000.0 nM
[2] = molecular target: Microtubule-associated serine/threonine-protein kinase 1 (Homo sapiens) (UniProt Q9Y2H9); conditions: Compound concentration 1000.0 nM
[3] = molecular target: 5'-AMP-activated protein kinase catalytic subunit alpha-2 (Homo sapiens) (UniProt P54646); conditions: Compound concentration 1000.0 nM
[4] = molecular target: Cytoplasmic tyrosine-protein kinase BMX (Homo sapiens) (UniProt P51813); conditions: Compound concentration 1000.0 nM
[5] = molecular target: Protein-tyrosine kinase 2-beta (Homo sapiens) (UniProt Q14289); conditions: Compound concentration 1000.0 nM
[6] = molecular target: Casein kinase I isoform delta (Homo sapiens) (UniProt P48730); conditions: Compound concentration 1000.0 nM
[7] = test system: Receptor-type tyrosine-protein kinase FLT3 (Homo sapiens), P36888 [D835V]; conditions: Compound concentration 1000.0 nM
[8] = test system: Proto-oncogene tyrosine-protein kinase receptor Ret (Homo sapiens), P07949 [V804M]; conditions: Compound concentration 1000.0 nM
[9] = molecular target: 5-hydroxytryptamine receptor 2C (Homo sapiens) (UniProt P28335); conditions: Compound concentration 10.0 uM
[10] = molecular target: Calcium/calmodulin-dependent protein kinase type II subunit beta (Homo sapiens) (UniProt Q13554); conditions: Compound concentration 1000.0 nM
[11] = molecular target: Mitogen-activated protein kinase kinase kinase 10 (Homo sapiens) (UniProt Q02779); conditions: Compound concentration 1000.0 nM
[12] = molecular target: MAP kinase-activated protein kinase 2 (Homo sapiens) (UniProt P49137); conditions: Compound concentration 1000.0 nM
[13] = species on record: Rattus norvegicus; conditions: Compound concentration 10.0 uM
[14] = molecular target: STE20-like serine/threonine-protein kinase (Homo sapiens) (UniProt Q9H2G2); conditions: Compound concentration 1000.0 nM
[15] = molecular target: 5-hydroxytryptamine receptor 1B (Homo sapiens) (UniProt P28222); conditions: Compound concentration 10.0 uM
[16] = molecular target: Ephrin type-B receptor 6 (Homo sapiens) (UniProt O15197); conditions: Compound concentration 1000.0 nM
[17] = molecular target: Serine/threonine-protein kinase PRP4 homolog (Homo sapiens) (UniProt Q13523); conditions: Compound concentration 1000.0 nM
[18] = molecular target: Serine/threonine-protein kinase PAK 5 (Homo sapiens) (UniProt Q9P286); conditions: Compound concentration 1000.0 nM
[19] = molecular target: T1, Alpha-2A adrenergic receptor (Homo sapiens) (UniProt P08913); conditions: Compound concentration 10.0 uM
T1 sequence (whole entry): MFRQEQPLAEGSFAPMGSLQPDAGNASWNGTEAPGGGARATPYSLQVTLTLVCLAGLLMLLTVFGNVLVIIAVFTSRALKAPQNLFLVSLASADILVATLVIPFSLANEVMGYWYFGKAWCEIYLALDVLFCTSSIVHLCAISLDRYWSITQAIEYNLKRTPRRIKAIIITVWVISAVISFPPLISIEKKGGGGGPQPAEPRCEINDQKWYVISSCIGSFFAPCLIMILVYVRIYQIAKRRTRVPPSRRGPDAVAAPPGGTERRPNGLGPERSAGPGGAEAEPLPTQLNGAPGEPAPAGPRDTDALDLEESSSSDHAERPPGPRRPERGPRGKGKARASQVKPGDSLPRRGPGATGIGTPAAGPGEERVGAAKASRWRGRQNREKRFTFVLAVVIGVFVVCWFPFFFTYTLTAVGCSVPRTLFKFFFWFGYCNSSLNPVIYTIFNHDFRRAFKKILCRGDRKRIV

[20] = molecular target: Sigma non-opioid intracellular receptor 1 (Homo sapiens, UniProt Q99720); conditions: Compound concentration 10.0 uM
[21] = molecular target: Mitogen-activated protein kinase kinase kinase kinase 4 (Homo sapiens) (UniProt O95819); conditions: Compound concentration 1000.0 nM
[22] = molecular target: Ephrin type-B receptor 3 (Homo sapiens) (UniProt P54753); conditions: Compound concentration 1000.0 nM
[23] = molecular target: Interleukin-1 receptor-associated kinase 1 (Homo sapiens) (UniProt P51617); conditions: Compound concentration 1000.0 nM
[24] = molecular target: Activated CDC42 kinase 1 (Homo sapiens) (UniProt Q07912); conditions: Compound concentration 1000.0 nM
[25] = molecular target: Glycogen synthase kinase-3 beta (Homo sapiens) (UniProt P49841); conditions: Compound concentration 1000.0 nM
[26] = molecular target: Ephrin type-A receptor 8 (Homo sapiens) (UniProt P29322); conditions: Compound concentration 1000.0 nM
[27] = molecular target: Kappa-type opioid receptor (Homo sapiens) (UniProt P41145); conditions: Compound concentration 10.0 uM
[28] = test system: Receptor-type tyrosine-protein kinase FLT3 (Homo sapiens), P36888 [K663Q]; conditions: Compound concentration 1000.0 nM
[29] = molecular target: Calcium/calmodulin-dependent protein kinase type 1D (Homo sapiens) (UniProt Q8IU85); conditions: Compound concentration 1000.0 nM
[30] = molecular target: Serine/threonine-protein kinase 33 (Homo sapiens) (UniProt Q9BYT3); conditions: Compound concentration 1000.0 nM
[31] = molecular target: GABA-A receptor; anion channel (Rattus norvegicus) (UniProt O09028+P15431+P18506+P18508+P19969+P20236+P23574+P23576+P28471+P28473+P30191+P62813+P63079+P63138+Q91ZM7+Q9ES14); conditions: Compound concentration 10.0 uM
[32] = molecular target: Mitogen-activated protein kinase kinase kinase 12 (Homo sapiens) (UniProt Q12852); conditions: Compound concentration 1000.0 nM
[33] = molecular target: Mitogen-activated protein kinase kinase kinase 20 (Homo sapiens) (UniProt Q9NYL2); conditions: Compound concentration 1000.0 nM
[34] = molecular target: Mitogen-activated protein kinase 10 (Homo sapiens) (UniProt P53779); conditions: Compound concentration 1000.0 nM
[35] = molecular target: Rho-associated protein kinase 1 (Homo sapiens) (UniProt Q13464); conditions: Compound concentration 1000.0 nM
[36] = molecular target: Cyclin-dependent kinase 13 (Homo sapiens) (UniProt Q14004); conditions: Compound concentration 1000.0 nM
[37] = molecular target: Serine/threonine-protein kinase Nek6 (Homo sapiens) (UniProt Q9HC98); conditions: Compound concentration 1000.0 nM
[38] = molecular target: Tyrosine-protein kinase ITK/TSK (Homo sapiens) (UniProt Q08881); conditions: Compound concentration 1000.0 nM

Chain of Mitogen-activated protein kinase kinase kinase 10 (Homo sapiens) (Q02779 whole entry, looked up): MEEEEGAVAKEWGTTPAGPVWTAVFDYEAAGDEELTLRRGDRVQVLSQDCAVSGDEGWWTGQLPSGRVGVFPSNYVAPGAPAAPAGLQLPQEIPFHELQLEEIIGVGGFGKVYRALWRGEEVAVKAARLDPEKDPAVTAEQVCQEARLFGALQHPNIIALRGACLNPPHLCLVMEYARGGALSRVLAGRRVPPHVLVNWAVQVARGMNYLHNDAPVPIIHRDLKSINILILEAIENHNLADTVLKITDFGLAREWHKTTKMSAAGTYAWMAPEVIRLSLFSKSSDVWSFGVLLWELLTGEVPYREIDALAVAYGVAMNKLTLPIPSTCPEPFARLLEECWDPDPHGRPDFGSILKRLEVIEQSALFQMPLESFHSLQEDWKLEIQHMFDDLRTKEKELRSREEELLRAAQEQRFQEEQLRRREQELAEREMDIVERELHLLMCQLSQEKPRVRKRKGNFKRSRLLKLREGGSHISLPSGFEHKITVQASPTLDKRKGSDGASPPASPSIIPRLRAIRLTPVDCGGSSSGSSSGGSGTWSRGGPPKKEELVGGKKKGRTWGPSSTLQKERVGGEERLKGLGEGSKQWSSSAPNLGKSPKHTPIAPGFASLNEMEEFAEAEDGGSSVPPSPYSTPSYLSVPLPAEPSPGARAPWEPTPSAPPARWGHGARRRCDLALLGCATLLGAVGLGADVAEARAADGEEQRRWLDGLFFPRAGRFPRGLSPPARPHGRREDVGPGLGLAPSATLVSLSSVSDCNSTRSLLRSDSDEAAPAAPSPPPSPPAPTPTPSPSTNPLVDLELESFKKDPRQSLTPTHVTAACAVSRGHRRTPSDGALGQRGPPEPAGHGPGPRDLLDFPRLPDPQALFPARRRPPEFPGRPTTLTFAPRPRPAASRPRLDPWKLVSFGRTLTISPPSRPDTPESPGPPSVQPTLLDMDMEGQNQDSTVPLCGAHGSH
Chain of 5-hydroxytryptamine receptor 1B (Homo sapiens) (P28222 whole entry): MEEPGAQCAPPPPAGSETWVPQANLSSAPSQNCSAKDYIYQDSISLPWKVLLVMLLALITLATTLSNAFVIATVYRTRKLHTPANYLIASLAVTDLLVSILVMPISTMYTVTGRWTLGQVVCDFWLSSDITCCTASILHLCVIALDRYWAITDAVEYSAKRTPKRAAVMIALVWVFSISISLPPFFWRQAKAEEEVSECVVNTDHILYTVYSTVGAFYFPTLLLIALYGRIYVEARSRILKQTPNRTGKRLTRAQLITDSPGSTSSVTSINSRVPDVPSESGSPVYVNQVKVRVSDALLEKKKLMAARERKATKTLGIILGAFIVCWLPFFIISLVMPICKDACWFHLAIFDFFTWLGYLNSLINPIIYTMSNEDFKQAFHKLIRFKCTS
Chain of Activated CDC42 kinase 1 (Homo sapiens) (Q07912 whole entry, looked up): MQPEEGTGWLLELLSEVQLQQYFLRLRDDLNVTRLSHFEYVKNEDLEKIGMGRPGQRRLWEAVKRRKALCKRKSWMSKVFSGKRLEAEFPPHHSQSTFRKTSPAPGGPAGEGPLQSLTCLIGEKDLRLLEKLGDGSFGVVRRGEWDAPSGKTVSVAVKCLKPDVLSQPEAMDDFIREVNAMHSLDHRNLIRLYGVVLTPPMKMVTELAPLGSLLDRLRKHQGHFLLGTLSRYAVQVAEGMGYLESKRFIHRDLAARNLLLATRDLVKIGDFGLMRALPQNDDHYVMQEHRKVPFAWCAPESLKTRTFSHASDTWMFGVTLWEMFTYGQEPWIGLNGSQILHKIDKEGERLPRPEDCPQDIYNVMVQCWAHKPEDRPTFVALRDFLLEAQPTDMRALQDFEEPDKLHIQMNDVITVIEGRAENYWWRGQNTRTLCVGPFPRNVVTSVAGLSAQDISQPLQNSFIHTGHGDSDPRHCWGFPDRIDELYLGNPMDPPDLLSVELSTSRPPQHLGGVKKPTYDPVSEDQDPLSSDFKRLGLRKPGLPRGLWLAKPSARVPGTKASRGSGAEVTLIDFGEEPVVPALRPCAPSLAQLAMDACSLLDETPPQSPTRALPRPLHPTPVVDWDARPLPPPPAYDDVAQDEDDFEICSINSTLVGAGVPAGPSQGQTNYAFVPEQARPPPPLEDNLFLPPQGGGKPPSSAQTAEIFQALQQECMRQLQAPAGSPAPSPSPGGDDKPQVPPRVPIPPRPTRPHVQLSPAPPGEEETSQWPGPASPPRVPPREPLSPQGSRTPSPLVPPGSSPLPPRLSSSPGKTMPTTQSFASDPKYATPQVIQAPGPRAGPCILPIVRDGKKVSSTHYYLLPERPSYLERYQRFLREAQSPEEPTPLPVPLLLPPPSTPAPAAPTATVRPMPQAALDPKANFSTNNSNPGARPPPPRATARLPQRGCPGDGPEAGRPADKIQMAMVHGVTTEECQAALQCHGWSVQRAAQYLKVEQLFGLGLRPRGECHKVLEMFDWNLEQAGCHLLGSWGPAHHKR
Chain of Interleukin-1 receptor-associated kinase 1 (Homo sapiens) (P51617 whole entry, looked up): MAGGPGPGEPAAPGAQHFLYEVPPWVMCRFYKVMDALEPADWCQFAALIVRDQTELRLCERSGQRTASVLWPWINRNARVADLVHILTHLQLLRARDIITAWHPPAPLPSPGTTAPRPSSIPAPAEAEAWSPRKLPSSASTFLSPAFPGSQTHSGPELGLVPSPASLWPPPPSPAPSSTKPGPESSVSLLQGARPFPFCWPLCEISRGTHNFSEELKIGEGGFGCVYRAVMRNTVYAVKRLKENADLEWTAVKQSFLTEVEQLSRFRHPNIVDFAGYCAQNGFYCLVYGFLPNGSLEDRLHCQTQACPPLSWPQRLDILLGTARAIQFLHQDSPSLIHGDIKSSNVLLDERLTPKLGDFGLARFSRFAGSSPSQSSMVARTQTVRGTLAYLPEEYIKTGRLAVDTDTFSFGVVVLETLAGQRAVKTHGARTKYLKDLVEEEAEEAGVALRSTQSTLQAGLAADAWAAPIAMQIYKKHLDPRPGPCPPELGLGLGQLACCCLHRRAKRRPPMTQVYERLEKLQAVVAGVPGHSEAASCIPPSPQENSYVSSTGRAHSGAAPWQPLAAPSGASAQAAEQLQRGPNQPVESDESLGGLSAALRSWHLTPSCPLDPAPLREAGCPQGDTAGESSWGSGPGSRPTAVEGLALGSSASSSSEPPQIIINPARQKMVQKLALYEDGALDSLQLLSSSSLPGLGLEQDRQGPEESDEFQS
Chain of Ephrin type-B receptor 3 (Homo sapiens) (P54753 whole entry): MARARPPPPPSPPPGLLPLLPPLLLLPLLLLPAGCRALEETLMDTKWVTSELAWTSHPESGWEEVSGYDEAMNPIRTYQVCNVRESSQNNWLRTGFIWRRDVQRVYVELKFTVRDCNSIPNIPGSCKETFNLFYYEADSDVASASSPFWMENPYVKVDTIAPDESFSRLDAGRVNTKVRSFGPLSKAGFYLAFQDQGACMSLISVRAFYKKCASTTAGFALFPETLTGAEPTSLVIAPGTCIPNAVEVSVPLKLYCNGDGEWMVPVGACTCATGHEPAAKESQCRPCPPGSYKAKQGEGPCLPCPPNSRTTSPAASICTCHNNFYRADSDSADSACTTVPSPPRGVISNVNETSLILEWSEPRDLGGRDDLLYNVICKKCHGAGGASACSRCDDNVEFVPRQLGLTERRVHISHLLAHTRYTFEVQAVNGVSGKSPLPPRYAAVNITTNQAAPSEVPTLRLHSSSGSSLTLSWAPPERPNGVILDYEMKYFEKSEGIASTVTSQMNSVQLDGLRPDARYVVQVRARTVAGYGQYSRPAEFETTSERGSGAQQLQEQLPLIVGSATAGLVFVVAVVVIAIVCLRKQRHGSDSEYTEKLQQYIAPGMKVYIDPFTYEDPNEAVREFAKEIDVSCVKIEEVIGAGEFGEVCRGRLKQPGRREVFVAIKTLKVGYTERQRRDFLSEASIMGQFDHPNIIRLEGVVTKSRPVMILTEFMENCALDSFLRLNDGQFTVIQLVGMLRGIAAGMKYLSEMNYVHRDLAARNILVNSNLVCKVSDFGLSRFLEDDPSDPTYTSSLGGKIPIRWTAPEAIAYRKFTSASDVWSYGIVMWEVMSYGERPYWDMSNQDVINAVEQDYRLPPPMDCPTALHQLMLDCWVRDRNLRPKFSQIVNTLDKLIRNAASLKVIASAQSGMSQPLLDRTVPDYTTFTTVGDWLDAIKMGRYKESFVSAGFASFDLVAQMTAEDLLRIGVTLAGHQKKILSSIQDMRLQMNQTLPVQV
Chain of Calcium/calmodulin-dependent protein kinase type II subunit beta (Homo sapiens) (Q13554 whole entry): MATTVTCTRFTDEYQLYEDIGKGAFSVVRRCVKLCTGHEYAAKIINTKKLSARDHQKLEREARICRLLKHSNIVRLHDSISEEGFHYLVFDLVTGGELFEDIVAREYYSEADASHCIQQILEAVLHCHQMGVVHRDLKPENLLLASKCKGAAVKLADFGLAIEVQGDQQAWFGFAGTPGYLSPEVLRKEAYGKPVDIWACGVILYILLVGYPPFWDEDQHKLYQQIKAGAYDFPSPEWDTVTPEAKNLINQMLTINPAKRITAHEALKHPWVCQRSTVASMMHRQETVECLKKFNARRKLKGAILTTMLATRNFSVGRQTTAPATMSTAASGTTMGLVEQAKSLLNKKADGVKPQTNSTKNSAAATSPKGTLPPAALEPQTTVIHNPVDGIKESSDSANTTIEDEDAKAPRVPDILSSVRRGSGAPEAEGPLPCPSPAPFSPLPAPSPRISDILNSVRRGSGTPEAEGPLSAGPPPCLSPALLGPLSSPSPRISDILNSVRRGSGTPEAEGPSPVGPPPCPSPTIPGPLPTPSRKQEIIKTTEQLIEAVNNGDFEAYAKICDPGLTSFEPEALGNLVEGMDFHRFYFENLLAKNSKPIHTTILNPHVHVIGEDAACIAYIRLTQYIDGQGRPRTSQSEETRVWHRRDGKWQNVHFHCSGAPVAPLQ
Chain of Sigma non-opioid intracellular receptor 1 (Q99720 whole entry): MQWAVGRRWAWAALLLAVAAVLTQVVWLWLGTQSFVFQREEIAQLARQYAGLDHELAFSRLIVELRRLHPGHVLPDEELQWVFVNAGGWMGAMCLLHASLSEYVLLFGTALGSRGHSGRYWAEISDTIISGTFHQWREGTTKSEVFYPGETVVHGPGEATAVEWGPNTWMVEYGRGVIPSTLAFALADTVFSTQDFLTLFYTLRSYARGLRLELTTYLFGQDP

| SMILES | residual activity [1] | residual activity [2] | residual activity [3] | residual activity [4] | residual activity [5] | residual activity [6] | residual activity [7] | residual activity [8] | inhibition [9] | residual activity [10] | residual activity [11] | residual activity [12] | inhibition [13] | residual activity [14] | inhibition [15] | residual activity [16] | residual activity [17] | residual activity [18] | inhibition [19] | inhibition [20] | also measured |
| --- | --- | --- | --- | --- | --- | --- | --- | --- | --- | --- | --- | --- | --- | --- | --- | --- | --- | --- | --- | --- | --- |
| O=C(NC[C@@H]1[C@H]2CN(C(=O)OCc3cc(C(F)(F)F)cc(C(F)(F)F)c3)C[C@@H]12)c1ccc2[nH]nnc2c1 [BI 2545] | 100% | 100% | 100% | 81% | 85% | 100% | 100% | 88% | 41.5% | 100% | 83% | 100% | 63.7% | 100% | 17.9% | 100% | 100% | 100% | 14.3% | 51.2% | residual activity [21]: 100%; residual activity [22]: 81%; residual activity [23]: 98%; residual activity [24]: 100%; residual activity [25]: 98%; residual activity [26]: 100%; inhibition [27]: 27.8%; residual activity [28]: 98%; residual activity [29]: 100%; residual activity [30]: 84%; inhibition [31]: 1.13%; residual activity [32]: 100%; residual activity [33]: 86%; residual activity [34]: 90%; residual activity [35]: 85%; residual activity [36]: 85%; residual activity [37]: 100%; residual activity [38]: 100% |
| Cc1nccc(COC(=O)N2C[C@@H]3[C@@H](CNC(=O)c4ccc5[nH]nnc5c4)[C@@H]3C2)n1 [BI 3017] | 90% | 100% | 97% | 88% | 100% | 97% | 79% | 100% | 31.1% | 90% | 85% | 72% | -4.4% | 100% | 4.4% | 99% | 95% | 92% | 2.2% | 3.21% | residual activity [21]: 99%; residual activity [22]: 100%; residual activity [23]: 81%; residual activity [24]: 100%; residual activity [25]: 100%; residual activity [26]: 100%; inhibition [27]: 9.47%; residual activity [28]: 100%; residual activity [29]: 100%; residual activity [30]: 93%; inhibition [31]: 9.85%; residual activity [32]: 72%; residual activity [33]: 90%; residual activity [34]: 100%; residual activity [35]: 71%; residual activity [36]: 82%; residual activity [37]: 100%; residual activity [38]: 100% |
